Experimental data reported in patent US10370371B2, “Substituted pyrimidine Bmi-1 inhibitors” (PTC Therapeutics, Inc., priority 2013, dated 2019).

The molecules below were run on Bmi-1 protein (assay: Sandwich ELISA Assay (Bmi-1 protein level in HT-1080 cells)).
Format: cell-based
Method in brief: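 HT-1080 cells were treated with compounds (0.5% DMSO final) for 40-48 h at 37 °C. Lysates were assayed by sandwich ELISA: mouse anti-Bmi-1 capture, rabbit anti-Bmi-1 and HRP anti-rabbit detection, TMB read at OD450 (OD570 reference). Levels were quantified against a recombinant GST-Bmi-1 standard curve (125-8000 pg/mL).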

EC50 [µM]	SMILES
0.01 to 0.1	CCc1nc2cc(F)ccc2n1-c1cc(N)nc(Nc2ccc(C(F)(F)F)cc2)n1 [Cpd 104, 6-(2-ethyl-5-fluoro-1-benzimidazol-1-yl)-N^2-[4-(trifluoromethyl)phenyl]pyrimidine-2,4-diamine]
0.1 to 3	Nc1cc(-c2c(C3CC3)nn3ccc(F)cc23)nc(Nc2ccc(C(F)(F)F)cc2)n1 [Cpd 107, 6-(2-cyclopropyl-5-fluoropyrazolo[1,5-a]pyridin-3-yl)-N^2-[4-(trifluoromethyl)phenyl]pyrimidine-2,4-diamine]
0.1 to 3	Cc1nc2c(cc(F)c[n+]2[O-])n1-c1cc(N)nc(Nc2ccc(C(F)(F)F)cc2)n1 [Cpd 108, 6-(6-fluoro-2-methyl-4-oxido-1H-imidazo[4,5-b]pyridin-1-yl)-N^2-[4-(trifluoromethyl)phenyl]pyrimidine-2,4-diamine]
0.01 to 0.1	Cc1nn2ccc(F)cc2c1-c1cc(N)nc(Nc2ccc(C(F)(F)F)cc2)n1 [Cpd 109, 6-(5-fluoro-2-methylpyrazolo[1,5-a]pyridin-3-yl)-N^2-[4-(trifluoromethyl)phenyl]pyrimidine-2,4-diamine]
0.1 to 3	Cc1nc2ccccc2n1-c1cc(N)[n+]([O-])c(Nc2ccc(C(F)(F)F)cc2)n1 [Cpd 110, 6-(2-methyl-1H-benzimidazol-1-yl)-N^2-[4-(trifluoromethyl)phenyl]pyrimidine-2,4-diamine 3-oxide]
0.1 to 3	Cc1nc2ccc(F)cc2n1-c1cc(N)[n+]([O-])c(Nc2ccc(C(F)(F)F)cc2)n1 [Cpd 112, 6-(6-fluoro-2-methyl-1H-benzimidazol-1-yl)-N^2-[4-(trifluoromethyl)phenyl]pyrimidine-2,4-diamine 3-oxide]
0.01 to 0.1	COc1ccn2nc(C)c(-c3cc(Cl)nc(Nc4ccc(C(F)(F)F)cc4)n3)c2c1 [Cpd 113, 4-chloro-6-(5-methoxy-2-methylpyrazolo[1,5-a]pyridin-3-yl)-N-[4-(trifluoromethyl)phenyl]pyrimidin-2-amine]
0.01 to 0.1	COc1ccn2nc(C)c(-c3cc(N)nc(Nc4ccc(C(F)(F)F)cc4)n3)c2c1 [Cpd 114, 6-(5-methoxy-2-methylpyrazolo[1,5-a]pyridin-3-yl)-N^2-[4-(trifluoromethyl)phenyl]pyrimidine-2,4-diamine]
0.1 to 3	Cc1nc2cc(F)c(F)cc2n1-c1cc(N)[n+]([O-])c(Nc2ccc(OC(F)F)cc2)n1 [Cpd 115, N^2-[4-(difluoromethoxy)phenyl]-6-(5,6-difluoro-2-methyl-1H-benzimidazol-1-yl)pyrimidine-2,4-diamine 3-oxide]
0.1 to 3	Nc1cc(-n2c(C3CC3)nc3ccccc32)nc(Nc2ccc(C(F)(F)F)cc2)[n+]1[O-] [Cpd 116, 6-(2-cyclopropyl-1H-benzimidazol-1-yl)-N^2-[4-(trifluoromethyl)phenyl]pyrimidine-2,4-diamine 3-oxide]
0.1 to 3	CCc1nc2ccccc2n1-c1cc(N)[n+]([O-])c(Nc2ccc(C(F)(F)F)cc2)n1 [Cpd 118, 6-(2-ethyl-1H-benzimidazol-1-yl)-N^2-[4-(trifluoromethyl)phenyl]pyrimidine-2,4-diamine 3-oxide]
0.1 to 3	CCc1nc2ccc(F)cc2n1-c1cc(N)[n+]([O-])c(Nc2ccc(C(F)(F)F)cc2)n1 [Cpd 119, 6-(2-ethyl-6-fluoro-1H-benzimidazol-1-yl)-N^2-[4-(trifluoromethyl)phenyl]pyrimidine-2,4-diamine 3-oxide]
0.01 to 0.1	Cc1nn2ccc(N)cc2c1-c1cc(N)nc(Nc2ccc(C(F)(F)F)cc2)n1 [Cpd 120, 6-(5-amino-2-methylpyrazolo[1,5-a]pyridin-3-yl)-N^2-[4-(trifluoromethyl)phenyl]pyrimidine-2,4-diamine]
0.01 to 0.1	Cc1nn2ccc(Cl)cc2c1-c1cc(N)nc(Nc2ccc(OC(F)F)cc2)n1 [Cpd 121, 6-(5-chloro-2-methylpyrazolo[1,5-a]pyridin-3-yl)-N^2-[4-(difluoromethoxy)phenyl]pyrimidine-2,4-diamine]
0.01 to 0.1	Cc1nn2ccc(Cl)cc2c1-c1cc(N)nc(Nc2ccc(C(F)(F)F)cc2)n1 [Cpd 122, 6-(5-chloro-2-methylpyrazolo[1,5-a]pyridin-3-yl)-N^2-[4-(trifluoromethyl)phenyl]pyrimidine-2,4-diamine]
0.01 to 0.1	CSc1nc2ccccc2n1-c1cc(N)nc(Nc2ccc(C(F)(F)F)cc2)n1 [Cpd 123, 6-[2-(methylsulfanyl)-1H-benzimidazol-1-yl]-N^2-[4-(trifluoromethyl)phenyl]pyrimidine-2,4-diamine]
0.01 to 0.1	CCc1nn2ccc(Cl)cc2c1-c1cc(N)nc(Nc2ccc(C(F)(F)F)cc2)n1 [Cpd 124, 6-(5-chloro-2-ethylpyrazolo[1,5-a]pyridin-3-yl)-N^2-[4-(trifluoromethyl)phenyl]pyrimidine-2,4-diamine]
0.01 to 0.1	CCc1nn2ccc(Cl)cc2c1-c1cc(N)nc(Nc2ccc(OC(F)F)cc2)n1 [Cpd 125, 6-(5-chloro-2-ethylpyrazolo[1,5-a]pyridin-3-yl)-N^2-[4-(difluoromethoxy)phenyl]pyrimidine-2,4-diamine]
0.1 to 3	Cc1cccc(Nc2nc(N)cc(-n3c(C)nc4ccccc43)n2)c1 [Cpd 127, 6-(2-methyl-1H-benzimidazol-1-yl)-N^2-(3-methylphenyl)pyrimidine-2,4-diamine]
0.001 to 0.01	Cc1ccc(Nc2nc(N)cc(-n3c(C)nc4ccccc43)n2)cc1 [Cpd 128, 6-(2-methyl-1H-benzimidazol-1-yl)-N^2-(4-methylphenyl)pyrimidine-2,4-diamine]
0.01 to 0.1	Cc1nc2ccccc2n1-c1cc(N)nc(Nc2ccc(Br)cc2)n1 [Cpd 131, N^2-(4-bromophenyl)-6-(2-methyl-1H-benzimidazol-1-yl)pyrimidine-2,4-diamine]
0.1 to 3	Cc1nc2ccccc2n1-c1cc(N)nc(Nc2ccc([N+](=O)[O-])cc2)n1 [Cpd 132, 6-(2-methyl-1H-benzimidazol-1-yl)-N^2-(4-nitrophenyl)pyrimidine-2,4-diamine]
0.001 to 0.01	COc1ccc(Nc2nc(N)cc(-n3c(C)nc4ccc(F)cc43)n2)cc1 [Cpd 133, 6-(6-fluoro-2-methyl-1H-benzimidazol-1-yl)-N^2-(4-methoxyphenyl)pyrimidine-2,4-diamine]
0.001 to 0.01	Cc1nc2ccccc2n1-c1cc(N)nc(Nc2ccc(N(C)C)cc2)n1 [Cpd 144, N^2-[4-(dimethylamino)phenyl]-6-(2-methyl-1H-benzimidazol-1-yl)pyrimidine-2,4-diamine]
0.1 to 3	Cc1nc2ccccc2n1-c1cc(N)nc(Nc2ccc(C#N)cc2)n1 [Cpd 145, 4-{[4-amino-6-(2-methyl-1H-benzimidazol-1-yl)pyrimidin-2-yl]amino}benzonitrile]
0.1 to 3	Cc1nc2ccccc2n1-c1cc(N)nc(Nc2ccc(OC(F)(F)F)cc2)n1 [Cpd 146, 6-(2-methyl-1H-benzimidazol-1-yl)-N^2-[4-(trifluoromethoxy)phenyl]pyrimidine-2,4-diamine]
0.1 to 3	Cc1nc2ccccc2n1-c1cc(N)nc(Nc2ccc3c(c2)OC(F)(F)O3)n1 [Cpd 147, N^2-(2,2-difluoro-1,3-benzodioxol-5-yl)-6-(2-methyl-1H-benzimidazol-1-yl)pyrimidine-2,4-diamine]
0.001 to 0.01	COc1ccc(Nc2nc(N)cc(-n3c(C)nc4ccccc43)n2)cc1Cl [Cpd 149, N^2-(3-chloro-4-methoxyphenyl)-6-(2-methyl-1H-benzimidazol-1-yl)pyrimidine-2,4-diamine]
